The record followed here is ChEMBL document CHEMBL1122959, “3-Hydroxy-3-methylglutaryl-coenzyme A reductase inhibitors. 1. Structural modification of 5-substituted 3,5-dihydroxypentanoic acids and their lactone derivatives” (J Med Chem, 1985).

The target in assay [1] is T1, 3-hydroxy-3-methylglutaryl-coenzyme A reductase (Rattus norvegicus) (UniProt P51639).
T1 sequence (whole entry): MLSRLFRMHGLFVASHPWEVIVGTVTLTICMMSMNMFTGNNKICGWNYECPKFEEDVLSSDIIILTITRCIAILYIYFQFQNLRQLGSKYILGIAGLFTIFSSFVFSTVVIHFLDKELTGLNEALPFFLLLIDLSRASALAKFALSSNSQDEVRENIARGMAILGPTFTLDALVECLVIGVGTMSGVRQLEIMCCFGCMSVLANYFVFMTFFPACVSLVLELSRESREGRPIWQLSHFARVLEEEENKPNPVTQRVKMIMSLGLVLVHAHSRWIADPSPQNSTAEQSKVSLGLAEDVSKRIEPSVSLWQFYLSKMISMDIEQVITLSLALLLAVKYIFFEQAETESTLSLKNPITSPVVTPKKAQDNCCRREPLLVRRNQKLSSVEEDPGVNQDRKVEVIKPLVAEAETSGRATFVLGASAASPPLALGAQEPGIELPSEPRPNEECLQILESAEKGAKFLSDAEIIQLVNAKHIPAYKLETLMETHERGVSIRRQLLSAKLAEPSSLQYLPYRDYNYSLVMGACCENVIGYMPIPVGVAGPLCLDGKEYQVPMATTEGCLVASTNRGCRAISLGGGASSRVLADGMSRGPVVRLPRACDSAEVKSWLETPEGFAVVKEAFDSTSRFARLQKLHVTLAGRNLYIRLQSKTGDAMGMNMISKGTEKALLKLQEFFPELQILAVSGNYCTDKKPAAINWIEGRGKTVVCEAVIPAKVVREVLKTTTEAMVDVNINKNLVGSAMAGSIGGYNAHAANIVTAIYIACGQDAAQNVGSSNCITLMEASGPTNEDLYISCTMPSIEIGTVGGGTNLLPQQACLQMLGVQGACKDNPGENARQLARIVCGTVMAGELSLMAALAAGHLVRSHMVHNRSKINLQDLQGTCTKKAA
Put plainly: Inhibition of partially purified rat liver HMG CoA reductase at 10 ug/ml concentration.

The target in assay [2] is T1, 3-hydroxy-3-methylglutaryl-coenzyme A reductase (Rattus norvegicus). The assay is described as follows: Inhibitory activity against partially purified rat liver HMG CoA reductase at 2 ug/ml concentration.
Assay [3] has the same target. Put plainly: Inhibitory activity against partially purified rat liver HMG CoA reductase at 20 ug/ml concentration.
Assay [4] shares this target. The assay is described as follows: Inhibitory activity against partially purified rat liver HMG CoA reductase at 5 ug/ml concentration.
For assay [5] the target is unchanged. The assay is described as follows: Relative potency against HMG CoA reductase.
The target is the same in assay [6]. The assay is described as follows: Inhibitory activity against partially purified rat liver HMG CoA reductase at 1 ug/ml concentration.
The target is the same in assay [7]. The assay is described as follows: Inhibitory activity against partially purified rat liver HMG CoA reductase at 4 ug/ml concentration.
For assay [8], the target named is T2, 3-hydroxy-3-methylglutaryl-coenzyme A reductase (Rattus norvegicus, UniProt P51639).
T2 sequence (P51639 whole entry): T1 sequence (whole entry)
The assay is described as follows: In vitro inhibitory activity against HMG CoA reductase.

In assay [9] the target is T1, 3-hydroxy-3-methylglutaryl-coenzyme A reductase (Rattus norvegicus). The assay is described as follows: Inhibitory activity against partially purified rat liver HMG CoA reductase at 8 ug/ml concentration.
The target is the same in assay [10]. Put plainly: Inhibitory activity against partially purified rat liver HMG CoA reductase at 0.1 ug/ml concentration.
The target is the same in assay [11]. The assay is described as follows: Inhibitory activity against partially purified rat liver HMG CoA reductase at 0.2 ug/ml concentration.
Assay [12] shares this target. The assay is described as follows: Inhibitory activity against partially purified rat liver HMG CoA reductase at 0.4 ug/ml concentration.
The target is the same in assay [13]. The assay is described as follows: Inhibitory activity against partially purified rat liver HMG CoA reductase at 25 ug/ml concentration.
Assay [14] has the same target. Put plainly: Inhibitory activity against partially purified rat liver HMG CoA reductase at 50 ug/ml concentration.
The target is the same in assay [15]. The assay is described as follows: Inhibitory activity against partially purified rat liver HMG CoA reductase at 1 ug/mL concentration.
Assay [16] has the same target. The assay is described as follows: Inhibitory activity against partially purified rat liver HMG CoA reductase at 3.125 ug/ml concentration.
For assay [17] the target is unchanged. Put plainly: Inhibitory activity against partially purified rat liver HMG CoA reductase at 0.625 ug/ml concentration.
Assay [18] shares this target. The assay is described as follows: Inhibitory activity against partially purified rat liver HMG CoA reductase at 0.8 ug/ml concentration.
The target is the same in assay [19]. The assay is described as follows: Inhibitory activity against partially purified rat liver HMG CoA reductase at 12.5 ug/ml concentration.
Assay [20] shares this target. To be noted: 1.4 ug/ml.
Description: Inhibitory activity against partially purified rat liver HMG CoA reductase at 1.4 ug/ml concentration
The target is the same in assay [21]. The assay is described as follows: Inhibitory activity against partially purified rat liver HMG CoA reductase at 4 ug/mL concentration.

The structures appear in SMILES notation.

The inhibition is the percentage by which the read-out fell short of the control. Lower therefore signals a weak effect. For the molecule `O=C1C[C@H](O)C[C@@H](/C=C/c2ccc(Cl)cc2Cl)O1` (stereo in doubt; 6a(+)) [listing 1 of 2 here], the inhibition in assay [1] was 72%; in assay [2] it was 45%; in [3], 86%; in assay [4] it was 66%; in [6] it was 26%. Further, the Relative potency in assay [5] was determined as 0.16.
Broadly, the IC50 is the point on the concentration scale where inhibition reaches its midpoint. High values mean weaker potency in that assay, low ones greater potency in that assay. As to `C[C@]1(O)CC(=O)O[C@H](/C=C/c2ccc(Cl)cc2Cl)C1`, the inhibition in [1] stood at 61%; in [2], 21%; in assay [7], 36%; in [6], 11%. Moreover, the half-maximal inhibitory concentration (IC50) in assay [8] turned out to be 20 µM. This molecule also gave a Relative potency in assay [5] of 0.09.
In the case of `O=C1C[C@H](O)C[C@@H](/C=C/c2ccc(Cl)cc2Cl)O1` (stereo in doubt; 6a(-)), the inhibition in assay [2], in [7], in [9] and in assay [6] was 0% in each case.
The molecule `O=C1C[C@H](O)C[C@@H](C=C2c3ccccc3C=Cc3ccccc32)O1` returned a concentration for half-maximal inhibition (IC50) in assay [8] of 1.6 µM. In assay [5], this molecule showed a Relative potency of 0.9. For the same molecule, the values for the inhibition in assay [10], in [11] and in [12] were 20%, 34% and 42%, respectively.
Take `CO[C@@H]1C[C@H](O)C[C@@H](/C=C/c2ccc(Cl)cc2Cl)O1`: the inhibition in assay [1] came to 0%; in assay [2], 0%; in [7] it was 0%; in assay [9], 6%.
For the molecule `CC1=CC(=O)OC(/C=C/c2ccc(Cl)cc2Cl)C1` (stereo not drawn), the inhibition in assay [1] is 3%; in assay [2], 0%; in [13] it was 5%; in [7] it was 3%.
On to `O=C1C[C@H](O)C[C@@H](CC[C@@H]2CCC[C@@H]3CCCC[C@@H]32)O1`, for which the inhibition in assay [1] came out at 22%; in [3] it was 44%; in [4], 15%; in assay [14] it was 70%. This molecule also displayed an IC50 in assay [8] of 107 µM.
As to `O=C1C[C@H](O)C[C@@H](COc2ccc(Cl)cc2Cl)O1`, the inhibition was 21% in assay [1], 24% in [2], 18% in assay [7] and 21% in [6].
Regarding `COC(/C=C/c1ccc(Cl)cc1Cl)CC(O)CC(=O)O` (stereo not drawn), the inhibition in assay [1], in assay [2], in [4] and in assay [15] was 0% in each case.
Regarding `O=C1C[C@@H](O)C[C@H](/C=C\c2ccc(Cl)cc2Cl)O1`, the inhibition in assay [16] and in assay [17] was 0% each time.
Turning to `O=C1C[C@@H](O)C[C@@H](/C=C/c2ccc(Cl)cc2Cl)O1` (racemic), the inhibition in [1] was determined as 27%; in [2], 4%; in assay [3], 17%; in assay [4] it was 6%; in assay [14] it was 18%.
Regarding `O=C1C[C@H](O)C[C@@H](/C=C/c2ccc(Cl)cc2Cl)O1` (racemic) [listing 1 of 2 here], in assay [8], inhibition was half-maximal at 22 µM (IC50).
`O=C1C[C@H](O)CC(C=C(c2ccccc2)c2ccccc2)O1` (stereo partly drawn): the inhibition in assay [18] was 20%; in assay [10], 22%; in [11], 36%; in assay [12], 14%.
Consider `O=C1C[C@H](O)C[C@@H](CCc2ccc(Cl)cc2Cl)O1`, for which the inhibition in assay [1] was 80%; in assay [2], 38%; in [4] it was 57%; in assay [6], 29%. In [8], this molecule yielded an IC50 of 15.2 µM.
On to `O=C1C[C@H](O)C[C@@H](/C=C/c2ccc(Cl)cc2Cl)O1` (stereo in doubt; 6a(+)) [listing 2 of 2 here], for which the 50% inhibitory concentration (IC50) in assay [8] was determined as 10.8 µM.
Take `O=C1C[C@H](O)CC(CCC23CC4CC(CC(C4)C2)C3)O1` (stereo partly drawn): the results for the inhibition in assay [19], in assay [4] and in assay [6] were 28%, 16% and 18%, respectively.
With `O=C1C[C@H](O)C[C@@H](C2CCCCC2)O1`, the inhibition in assay [1] was 0%; in assay [3] it was 6%; in [4] it was 1%; in [14] it was 36%.
With `O=C1C[C@H](O)CC(CCC2CCCCC2)O1` (stereo partly drawn), the inhibition came out at 6% in assay [1], 17% in [3], 23% in assay [4] and 34% in assay [14].
For the molecule `C[C@]1(O)CC(=O)O[C@H](CCc2ccc(Cl)cc2Cl)C1`, the inhibition in assay [2] worked out at 26%; in assay [7], 37%; in assay [9], 63%; in [6] it was 14%. The IC50 in assay [8] was determined as 19.8 µM. Besides, the Relative potency in [5] was 0.08.
For the molecule `O=C1C[C@H](O)C[C@@H](C=C2c3ccccc3-c3ccccc32)O1`, the inhibition was 81% in assay [18], 25% in [10], 48% in assay [11] and 61% in [20]. In assay [8], this molecule registered a concentration for half-maximal inhibition (IC50) of 0.89 µM. Moreover, the Relative potency in assay [5] worked out at 1.5.
Regarding `O=C1C[C@H](O)CC(CC[C@@H]2CC[C@H]3CCCC[C@@H]3C2)O1` (stereo partly drawn), the inhibition was found to be 28% in assay [19], 13% in [4] and 1% in assay [6]. In assay [8], the IC50 came to 90 µM.
Regarding `O=C1C=C(O)OC(/C=C/c2ccc(Cl)cc2Cl)C1` (stereo not drawn), the inhibition is 12% in [1], 0% in assay [2] and 15% in assay [14].
As to `O=C1C[C@H](O)CC(CCCc2cccc3ccccc23)O1` (stereo partly drawn), the inhibition came out at 25% in assay [1], 11% in [2], 35% in [13] and 7% in [4].
On to `O=C1C[C@H](O)CC(c2ccc(Cl)cc2Cl)O1` (stereo partly drawn), for which the inhibition in assay [1] was determined as 26%; in [3], 27%; in assay [4], 4%; in [14] it was 23%.
In the case of `C[C@@]1(O)CC(=O)O[C@H](/C=C/c2ccc(Cl)cc2Cl)C1`, the inhibition was found to be 5% in assay [1], 3% in assay [2], 15% in assay [13] and 7% in [7].
On to `O=C1C[C@H](O)C[C@@H](/C=C/c2ccc(Cl)cc2Cl)O1` (racemic) [listing 2 of 2 here], for which the inhibition in assay [1] turned out to be 64%; in assay [3], 84%; in assay [4] it was 41%; in assay [6], 13%. In addition, the Relative potency in [5] was found to be 0.08.
For `O=C1C[C@H](O)CC(CCc2cccc3ccccc23)O1` (stereo partly drawn), the inhibition worked out at 29% in assay [1], 45% in [3], 19% in assay [4] and 61% in assay [14]. The IC50 in [8] was found to be 129 µM.
Regarding `O=C1C[C@H](O)C[C@@H](C#Cc2ccc(Cl)cc2Cl)O1`, the values for the inhibition in [16] and in [17] were 8% and 0%, respectively.
With `O=C1C[C@H](O)C[C@@H](/C=C/c2ccccc2)O1`, the inhibition in assay [1] worked out at 15%; in assay [3] it was 14%; in assay [4], 3%; in assay [14], 31%.
With `CC[C@H](C)C(=O)O[C@H]1CCC=C2C=C[C@H](C)[C@H](CC[C@@H]3C[C@@H](O)CC(=O)O3)[C@H]21` [MEVASTATIN], the IC50 in assay [8] was found to be 0.01 µM. Further, in [5], the Relative potency was 100.
For `O=C1C[C@H](O)CC(c2cccc3ccccc23)O1` (stereo partly drawn), the inhibition in assay [1] was 9%; in assay [3], 7%; in [4] it was 16%; in assay [14], 18%.
For the molecule `NC(=O)C[C@H](O)C[C@H](O)/C=C/c1ccc(Cl)cc1Cl`, the inhibition in [2], in [21], in assay [9] and in assay [6] was 0% in each case.
